Values belong to the molecule of their own block, whether it stands above or below them.
Experiments:
MRC5 = experiment: MTS proliferation assay; assay type: cell-based; conditions: MRC5, 72 h
Outline: (§1)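 Absorbance at 492 nm after a 3 h MTS incubation reports viable cell number. Before that, compounds at 10 μM, 3 μM, 1 μM and 0.3 μM final stay on the cells for 72 h at culture conditions.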

HeLa [1] = experiment: MTS proliferation assay; assay type: cell-based, human; conditions: 72 h
Outline: as §1

Jurkat [2] = experiment: MTS proliferation assay; assay type: cell-based, human; conditions: 72 h
Outline: as §1

HeLa [3] = experiment: PI staining for cell cycle distribution; assay type: cell-based, human; design: key: 0: no effect; 1: weak effect; 2: strong effect; conditions: HeLa 10μM, 48 h
Method: (§2) 1-2*10^5 cells are seeded into 24 well tissue culture plates and incubated for 24 h prior to compound addition. […] Adherent cells are harvested by trypsinization. The cell suspensions are fixed by adding 2 parts ice cold ethanol 100% while vortexing. Then the samples are stored for>2 h at −20° C. Subsequently the cells are washed with PBS once and resuspended in 250 μl PBS containing 50 μg/ml PI (Calbiochem # 537059), then the samples are incubated at 37° C. for 30 min and subsequently analyzed on a FACSCalibur™ monitoring linear PI fluorescence activity on FL2. The readout allows the detection of a possible direct or indirect influence of the tested compounds on the cell cycle. The following events can occur: a) Generation of a subG1 peak indicative for DNA fragmentation, b) increase of the cell population arrested in G2M phase. Both events are scored by 1 for weak and 2 for strong occurrence. 0 indicates no occurrence at all.

Jurkat [4] = experiment: PI staining for cell cycle distribution; assay type: cell-based, human; design: key: 0: no effect; 1: weak effect; 2: strong effect; conditions: Jurkat 3μM, 48 h
Method: as §2

[5] = Hoechst 33342 nuclear staining; assay type: cell-based; conditions: for Hoechst 33342 nuclear staining score, H460: H460 cells; for Hoechst 33342 nuclear staining score, HeLa: HeLa cells; for Hoechst 33342 nuclear staining score, Jily: Jily cells; for Hoechst 33342 nuclear staining score, Jurkat: Jurkat cells; for Hoechst 33342 nuclear staining score, MRC5: MRC5 cells;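 for all read-outs here: apoptotic nuclei scored 0 none 1 weak under 50% of cells 2 strong over 50% of cells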
Outline: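 Cells were plated in 96 well tissue culture plates in 80 μl complete medium, with 3-5*10^3 cells per well for adherent lines and 8-10*10^3 for suspension lines. Adherent cells spread for 24 h before treatment, while suspension cells were treated right after seeding. Compounds were added in 20 μl complete medium containing max 5% DMSO.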

Jily = experiment: MTS proliferation assay; assay type: cell-based; conditions: 72 h
Outline: as §1

[6] = conc 0.1 (final concentrations in μM), 24 h or 48 h incubation
[7] = conc 0.3 (final concentrations in μM), 24 h or 48 h incubation
[8] = conc 1 (final concentrations in μM), 24 h or 48 h incubation
[9] = conc 3 (final concentrations in μM), 24 h or 48 h incubation

Molecule: p-(1-[p-Toluenesulfonyl]-2-[3,4,5-trimethoxyphenyl]-4-pyrrolyl)-benzamide [Example 6]
IC50 (MRC5): < 1000 nM | IC50 (HeLa [1]): < 1000 nM | IC50 (Jurkat [2]): < 200 nM | PI staining for cell cycle distribution, G2M (HeLa [3]): 2 | PI staining for cell cycle distribution, subG1 (HeLa [3]): 0 | PI staining for cell cycle distribution, G2M (Jurkat [4]): 1 | PI staining for cell cycle distribution, subG1 (Jurkat [4]): 0

Molecule: COc1cc(-c2cc(CNc3ccc(-c4nnn[nH]4)cc3)cn2S(=O)(=O)c2ccc(C)cc2)cc(OC)c1OC [Example 73]
IC50 (MRC5): > 1000 nM | IC50 (Jily): > 1000 nM | IC50 (HeLa [1]): > 1000 nM | IC50 (Jurkat [2]): > 1000 nM | Hoechst 33342 nuclear staining score, H460 ([5]; conc 0.1): 0 | Hoechst 33342 nuclear staining score, H460 ([5]; conc 0.3): 0 | Hoechst 33342 nuclear staining score, H460 ([5]; conc 1): 0 | Hoechst 33342 nuclear staining score, H460 ([5]; conc 3): 2 (strong activity comprising more than 50% of the cells) | Hoechst 33342 nuclear staining score, HeLa ([5]; conc 0.1): 0 | Hoechst 33342 nuclear staining score, HeLa ([5]; conc 0.3): 0 | Hoechst 33342 nuclear staining score, HeLa ([5]; conc 1): 0 | Hoechst 33342 nuclear staining score, HeLa ([5]; conc 3): 0 | Hoechst 33342 nuclear staining score, Jily ([5]; conc 0.1): 0 | Hoechst 33342 nuclear staining score, Jily ([5]; conc 0.3): 0 | Hoechst 33342 nuclear staining score, Jily ([5]; conc 1): 0 | Hoechst 33342 nuclear staining score, Jily ([5]; conc 3): 1 (weak activity comprising less than 50% of the cells) | Hoechst 33342 nuclear staining score, Jurkat ([5]; conc 0.1): 0 | Hoechst 33342 nuclear staining score, Jurkat ([5]; conc 0.3): 0 | Hoechst 33342 nuclear staining score, Jurkat ([5]; conc 1): 0 | Hoechst 33342 nuclear staining score, Jurkat ([5]; conc 3): 2 (strong activity comprising more than 50% of the cells) | Hoechst 33342 nuclear staining score, MRC5 ([5]; conc 0.1): 0 | Hoechst 33342 nuclear staining score, MRC5 ([5]; conc 0.3): 0 | Hoechst 33342 nuclear staining score, MRC5 ([5]; conc 1): 0 | Hoechst 33342 nuclear staining score, MRC5 ([5]; conc 3): 0 | Hoechst 33342 nuclear staining score, PBLs ([5]; conc 0.1): 0 | Hoechst 33342 nuclear staining score, PBLs ([5]; conc 0.3): 0 | Hoechst 33342 nuclear staining score, PBLs ([5]; conc 1): 0 | Hoechst 33342 nuclear staining score, PBLs ([5]; conc 3): 0

Molecule: COc1cc(-c2cc(-c3cccnc3)cn2S(=O)(=O)c2ccc(N)cc2)cc(OC)c1OC [Example 93]
IC50 (MRC5): > 1000 nM | IC50 (Jily): > 1000 nM | IC50 (HeLa [1]): > 1000 nM | IC50 (Jurkat [2]): > 1000 nM | Hoechst 33342 nuclear staining score, H460 ([5]; conc 0.1): 0 | Hoechst 33342 nuclear staining score, H460 ([5]; conc 0.3): 0 | Hoechst 33342 nuclear staining score, H460 ([5]; conc 1): 0 | Hoechst 33342 nuclear staining score, H460 ([5]; conc 3): 0 | Hoechst 33342 nuclear staining score, HeLa ([5]; conc 0.1): 0 | Hoechst 33342 nuclear staining score, HeLa ([5]; conc 0.3): 0 | Hoechst 33342 nuclear staining score, HeLa ([5]; conc 1): 0 | Hoechst 33342 nuclear staining score, HeLa ([5]; conc 3): 0 | Hoechst 33342 nuclear staining score, Jily ([5]; conc 0.1): 0 | Hoechst 33342 nuclear staining score, Jily ([5]; conc 0.3): 0 | Hoechst 33342 nuclear staining score, Jily ([5]; conc 1): 0 | Hoechst 33342 nuclear staining score, Jily ([5]; conc 3): 0 | Hoechst 33342 nuclear staining score, Jurkat ([5]; conc 0.1): 0 | Hoechst 33342 nuclear staining score, Jurkat ([5]; conc 0.3): 0 | Hoechst 33342 nuclear staining score, Jurkat ([5]; conc 1): 0 | Hoechst 33342 nuclear staining score, Jurkat ([5]; conc 3): 0 | Hoechst 33342 nuclear staining score, MRC5 ([5]; conc 0.1): 0 | Hoechst 33342 nuclear staining score, MRC5 ([5]; conc 0.3): 0 | Hoechst 33342 nuclear staining score, MRC5 ([5]; conc 1): 0 | Hoechst 33342 nuclear staining score, MRC5 ([5]; conc 3): 0 | Hoechst 33342 nuclear staining score, PBLs ([5]; conc 0.1): 0 | Hoechst 33342 nuclear staining score, PBLs ([5]; conc 0.3): 0 | Hoechst 33342 nuclear staining score, PBLs ([5]; conc 1): 0 | Hoechst 33342 nuclear staining score, PBLs ([5]; conc 3): 0

More lines, main results first:

IC50 (HeLa [1]): > 1000 nM | IC50 (Jurkat [2]): < 1000 nM
Molecule: Cc1ccc(S(=O)(=O)n2cc(-c3cncc(C(N)=O)c3)cc2-c2cccs2)cc1 [Example 53]
IC50 (MRC5): > 1000 nM | PI staining for cell cycle distribution, G2M (HeLa [3]): 2 | PI staining for cell cycle distribution, subG1 (HeLa [3]): 0 | PI staining for cell cycle distribution, G2M (Jurkat [4]): 1 | PI staining for cell cycle distribution, subG1 (Jurkat [4]): 0 | Hoechst 33342 nuclear staining score, H460 [5, 6]: 0 | Hoechst 33342 nuclear staining score, H460 [5, 7]: 0 | Hoechst 33342 nuclear staining score, H460 [5, 8]: 0 | Hoechst 33342 nuclear staining score, H460 [5, 9]: 0 | Hoechst 33342 nuclear staining score, HeLa [5, 6]: 0 | Hoechst 33342 nuclear staining score, HeLa [5, 7]: 0 | Hoechst 33342 nuclear staining score, HeLa [5, 8]: 0 | Hoechst 33342 nuclear staining score, HeLa [5, 9]: 0 | Hoechst 33342 nuclear staining score, Jily [5, 6]: 0 | Hoechst 33342 nuclear staining score, Jily [5, 7]: 0 | Hoechst 33342 nuclear staining score, Jily [5, 8]: 0 | Hoechst 33342 nuclear staining score, Jily [5, 9]: 0 | Hoechst 33342 nuclear staining score, Jurkat [5, 6]: 0 | Hoechst 33342 nuclear staining score, Jurkat [5, 7]: 0 | Hoechst 33342 nuclear staining score, Jurkat [5, 8]: 0 | Hoechst 33342 nuclear staining score, Jurkat [5, 9]: 0 | Hoechst 33342 nuclear staining score, MRC5 [5, 6]: 0 | Hoechst 33342 nuclear staining score, MRC5 [5, 7]: 0 | Hoechst 33342 nuclear staining score, MRC5 [5, 8]: 0 | Hoechst 33342 nuclear staining score, MRC5 [5, 9]: 0 | Hoechst 33342 nuclear staining score, PBLs [5, 6]: 0 | Hoechst 33342 nuclear staining score, PBLs [5, 7]: 0 | Hoechst 33342 nuclear staining score, PBLs [5, 8]: 0 | Hoechst 33342 nuclear staining score, PBLs [5, 9]: 0

IC50 (HeLa [1]; Homo sapiens): < 1000 nM | IC50 (Jurkat [2]; Homo sapiens): < 200 nM
Molecule: COc1ccc(S(=O)(=O)n2cc(-c3cncc(C(N)=O)c3)cc2-c2cc(OC)c(OC)c(OC)c2)cc1 [Example 104, 4-(3-Aminocarbonylpyrid-5-yl)-1-p-methoxyphenylsulfonyl-2-(3,4,5-trimethoxyphenyl)-pyrrole]
IC50 (MRC5; Homo sapiens): < 200 nM | IC50 (Jily): < 200 nM | Hoechst 33342 nuclear staining score, H460 ([5]; conc 0.1): 0 | Hoechst 33342 nuclear staining score, H460 ([5]; conc 0.3): 2 (strong activity comprising more than 50% of the cells) | Hoechst 33342 nuclear staining score, H460 ([5]; conc 1): 2 (strong activity comprising more than 50% of the cells) | Hoechst 33342 nuclear staining score, H460 ([5]; conc 3): 2 (strong activity comprising more than 50% of the cells) | Hoechst 33342 nuclear staining score, HeLa ([5]; conc 0.1): 0 | Hoechst 33342 nuclear staining score, HeLa ([5]; conc 0.3): 2 (strong activity comprising more than 50% of the cells) | Hoechst 33342 nuclear staining score, HeLa ([5]; conc 1): 2 (strong activity comprising more than 50% of the cells) | Hoechst 33342 nuclear staining score, HeLa ([5]; conc 3): 2 (strong activity comprising more than 50% of the cells) | Hoechst 33342 nuclear staining score, Jily ([5]; conc 0.1): 0 | Hoechst 33342 nuclear staining score, Jily ([5]; conc 0.3): 2 (strong activity comprising more than 50% of the cells) | Hoechst 33342 nuclear staining score, Jily ([5]; conc 1): 2 (strong activity comprising more than 50% of the cells) | Hoechst 33342 nuclear staining score, Jily ([5]; conc 3): 2 (strong activity comprising more than 50% of the cells) | Hoechst 33342 nuclear staining score, Jurkat ([5]; conc 0.1): 0 | Hoechst 33342 nuclear staining score, Jurkat ([5]; conc 0.3): 2 (strong activity comprising more than 50% of the cells) | Hoechst 33342 nuclear staining score, Jurkat ([5]; conc 1): 2 (strong activity comprising more than 50% of the cells) | Hoechst 33342 nuclear staining score, Jurkat ([5]; conc 3): 2 (strong activity comprising more than 50% of the cells) | Hoechst 33342 nuclear staining score, MRC5 ([5]; conc 0.1): 0 | Hoechst 33342 nuclear staining score, MRC5 ([5]; conc 0.3): 1 (weak activity comprising less than 50% of the cells) | Hoechst 33342 nuclear staining score, MRC5 ([5]; conc 1): 2 (strong activity comprising more than 50% of the cells) | Hoechst 33342 nuclear staining score, MRC5 ([5]; conc 3): 2 (strong activity comprising more than 50% of the cells) | Hoechst 33342 nuclear staining score, PBLs ([5]; conc 0.1): 0 | Hoechst 33342 nuclear staining score, PBLs ([5]; conc 0.3): 0 | Hoechst 33342 nuclear staining score, PBLs ([5]; conc 1): 0 | Hoechst 33342 nuclear staining score, PBLs ([5]; conc 3): 0
